Consider one molecule from paper PMC2728625 (Nature structural & molecular biology, 2009).

Marks after values point to notes of the source that are not given here.

In data set [1] the target is T1, PV RdRp WT (Poliovirus type 1, UniProt P03300). The class given is biochemical.
The target of another data set is T7 DdRp K631L (Escherichia phage T7, UniProt P00573, K631L). The format is biochemical.
For the next data set, the target named is T7 DdRp WT (Escherichia phage T7, UniProt P00573). The class given is biochemical.
Chain of T7 DdRp WT (P00573 whole entry, looked up): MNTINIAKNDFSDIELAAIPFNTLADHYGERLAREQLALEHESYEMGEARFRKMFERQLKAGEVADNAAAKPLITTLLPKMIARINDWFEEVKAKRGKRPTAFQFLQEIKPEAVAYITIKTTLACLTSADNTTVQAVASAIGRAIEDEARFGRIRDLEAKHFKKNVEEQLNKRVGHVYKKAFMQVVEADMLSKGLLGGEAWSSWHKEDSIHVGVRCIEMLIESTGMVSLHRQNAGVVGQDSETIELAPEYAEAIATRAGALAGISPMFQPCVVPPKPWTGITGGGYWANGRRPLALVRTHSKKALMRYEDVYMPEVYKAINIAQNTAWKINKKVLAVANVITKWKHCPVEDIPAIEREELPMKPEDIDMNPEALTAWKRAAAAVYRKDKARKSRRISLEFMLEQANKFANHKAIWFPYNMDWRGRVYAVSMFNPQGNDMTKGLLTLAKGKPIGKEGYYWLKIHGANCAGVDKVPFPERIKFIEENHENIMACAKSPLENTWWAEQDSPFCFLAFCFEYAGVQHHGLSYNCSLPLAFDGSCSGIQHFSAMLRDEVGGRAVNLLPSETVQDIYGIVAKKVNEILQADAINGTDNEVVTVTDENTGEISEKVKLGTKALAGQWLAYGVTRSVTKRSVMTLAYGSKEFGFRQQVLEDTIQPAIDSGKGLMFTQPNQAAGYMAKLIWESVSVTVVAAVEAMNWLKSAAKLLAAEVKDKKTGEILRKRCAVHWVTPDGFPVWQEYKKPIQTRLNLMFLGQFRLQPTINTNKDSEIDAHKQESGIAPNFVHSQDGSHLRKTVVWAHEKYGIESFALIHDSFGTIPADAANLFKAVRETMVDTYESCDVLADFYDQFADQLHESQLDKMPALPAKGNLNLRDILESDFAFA
The target in data set [2] is T1, PV RdRp WT. The format is biochemical. The source holds these as a separate data set.
Data set [3] has as its target T1, PV RdRp WT. As to conditions: cited from earlier work.
Setting [4] is: read-out: Kd,app (apparent dissociation constant for nucleotide).

T1 sequence (P03300 1749-2209 limits assumed): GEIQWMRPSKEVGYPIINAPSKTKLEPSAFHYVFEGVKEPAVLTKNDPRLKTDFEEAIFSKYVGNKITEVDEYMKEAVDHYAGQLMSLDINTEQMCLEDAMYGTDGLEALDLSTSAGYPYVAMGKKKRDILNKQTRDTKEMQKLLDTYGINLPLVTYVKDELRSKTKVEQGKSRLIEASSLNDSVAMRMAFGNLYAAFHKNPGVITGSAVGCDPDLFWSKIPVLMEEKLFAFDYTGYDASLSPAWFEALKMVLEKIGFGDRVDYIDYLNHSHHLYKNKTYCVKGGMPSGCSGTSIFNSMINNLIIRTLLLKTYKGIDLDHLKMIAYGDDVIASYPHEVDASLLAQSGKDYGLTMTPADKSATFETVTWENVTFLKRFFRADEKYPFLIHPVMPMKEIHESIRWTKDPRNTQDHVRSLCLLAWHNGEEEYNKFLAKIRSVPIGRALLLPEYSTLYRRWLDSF
Chain of T7 DdRp K631L (P00573 whole entry K631L, looked up): as the sequence (P00573 whole entry, looked up) above, with K631L counted along it

Turning to `Nc1ncnc2c1ncn2[C@@H]1O[C@H](COP(=O)(O)OP(=O)(O)OP(=O)(O)O)[C@@H](O)[C@H]1O` [ATP], at PV RdRp WT [1], the SDKIE worked out at 7 ± 1. Further, the results for the “SDKIE (solvent deuterium kinetic isotope effect)” value on T7 DdRp K631L, on T7 DdRp WT and on PV RdRp WT [2] were 2.6 ± 0.5 ^c, 5.2 ± 0.5 and 3.0 ± 0.3, respectively. Also, the “kpol (maximal rate constant for nucleotide incorporation)” value is 0.6 ± 0.1 s⁻¹ on T7 DdRp K631L, 60 ± 5 s⁻¹ on T7 DdRp WT (pH 7.5) and 50 ± 5 s⁻¹ at PV RdRp WT [2]. The “reduction in kpol relative to wt” value on T7 DdRp K631L is listed as 100 fold. The Kd on T7 DdRp K631L (setting [4]) was 50000 µM; on T7 DdRp WT (read-out: Kd,app (apparent dissociation constant for nucleotide), pH 7.5), 300 ± 30 µM; at PV RdRp WT [2] (setting [4]), 200 ± 20 µM. The “PI (proton inventory: proton-transfer model that best fits)” value at T7 DdRp WT and at PV RdRp WT [2] was 2 in each case. The “pKa from pH rate profile of kpol, second ionizable group” value on PV RdRp WT [3] is 10.5.
